# Test results from patent US7135488B2, “Pyrrolyl-thiazole derivatives” (Hoffmann-La Roche Inc., priority 2003, dated 2006).
# Target: T1, human cannabis CB1 receptor (Homo sapiens, UniProt P21554)
# T1 construct: expressed in transfected cells; host or cells: human embryonic kidney (HEK) cells, Semliki Forest Virus system, membrane preparation
# Test: CB1 receptor affinity, [3H]-CP-55,940 radioligand binding on HEK cell membranes
# Settings: not given
# Description: The affinity of the compounds of the invention for cannabinoid CB1 receptors was determined using membrane preparations of human embryonic kidney (HEK) cells in which the human cannabis CB1 receptor is transiently transfected using the Semliki Forest Virus system in conjunction with [3H]-CP-55,940 as radioligand. After incubation of a freshly prepared cell membrane preparation with the [3H]-ligand, with or without addition of compounds of the invention, separation of bound and free ligand was performed by filtration over glassfiber filters. Radioactivity on the filter was measured by liquid scintillation counting.
# T1 sequence (P21554 whole entry): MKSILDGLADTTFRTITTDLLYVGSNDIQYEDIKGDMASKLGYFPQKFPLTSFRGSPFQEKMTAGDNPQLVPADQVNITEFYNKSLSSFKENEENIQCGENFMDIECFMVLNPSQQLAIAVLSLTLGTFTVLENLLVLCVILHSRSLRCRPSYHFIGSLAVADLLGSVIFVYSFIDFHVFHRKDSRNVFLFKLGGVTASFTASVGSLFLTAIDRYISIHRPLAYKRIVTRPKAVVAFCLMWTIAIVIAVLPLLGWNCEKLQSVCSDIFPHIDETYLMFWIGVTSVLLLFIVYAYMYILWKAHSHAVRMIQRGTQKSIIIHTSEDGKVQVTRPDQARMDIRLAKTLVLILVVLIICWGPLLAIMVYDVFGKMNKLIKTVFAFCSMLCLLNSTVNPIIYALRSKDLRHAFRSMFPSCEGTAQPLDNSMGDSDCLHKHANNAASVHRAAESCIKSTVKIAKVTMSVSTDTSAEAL
row,Compound,IC50
1,"COc1ccc(-c2nc(-c3cc(C(=O)N4CCCCC4)c(C)n3CC3CCCCC3)cs2)cc1 [Example 311, {1-Cyclohexylmethyl-5-[2-(4-methoxy-phenyl)-thiazol-4-yl]-2-methyl-1H-pyrrol-3-yl}-piperidin-1-yl-methanone]",< 2000 nM
2,"CCCCNC(=O)c1cc(-c2csc(C3CCCCC3)n2)n(CC2CCCCC2)c1C [Example 375, Cyclohexylmethyl-5-(2-cyclohexyl-thiazol-4-yl)-2-methyl-1H-pyrrole-3-carboxylic acid butylamide]",< 2000 nM
3,"COc1ccc(-c2nc(-c3cc(C(=O)NN4CCCCC4)c(C)n3CC3CCCCC3)cs2)cc1 [Example 299, Cyclohexylmethyl-5-[2-(4-methoxy-phenyl)-thiazol-4-yl]-2-methyl-1H-pyrrole-3-carboxylic acid piperidin-1-ylamide]",< 2000 nM
4,"COc1ccc(-c2nc(-c3cc(C(=O)NCc4ccccn4)c(C)n3CC3CCCCC3)cs2)cc1 [Example 305, Cyclohexylmethyl-5-[2-(4-methoxy-phenyl)-thiazol-4-yl]-2-methyl-1H-pyrrole-3-carboxylic acid (pyridin-2-ylmethyl)-amide]",< 2000 nM
5,"COc1ccc(-c2nc(-c3cc(C(=O)Nc4ncccn4)c(C)n3CC3CCCCC3)cs2)cc1 [Example 324, Cyclohexylmethyl-5-[2-(4-methoxy-phenyl)-thiazol-4-yl]-2-methyl-1H-pyrrole-3-carboxylic acid pyrimidin-2-ylamide]",< 2000 nM
6,"COc1ccc(-c2nc(-c3cc(C(=O)NC4CCCCC4)c(C)n3CC3CCCCC3)cs2)cc1 [Example 356, Cyclohexylmethyl-5-[2-(4-methoxy-phenyl)-thiazol-4-yl]-2-methyl-1H-pyrrole-3-carboxylic acid cyclohexylamide]",< 2000 nM
7,"COc1ccc(-c2nc(-c3cc(C(=O)Nc4ccccc4)c(C)n3CC3CCCCC3)cs2)cc1 [Example 315, Cyclohexylmethyl-5-[2-(4-methoxy-phenyl)-thiazol-4-yl]-2-methyl-1H-pyrrole-3-carboxylic acid phenylamide]",< 2000 nM
8,"CCCCNC(=O)c1cc(-c2csc(-c3ccc(OC)cc3)n2)n(CC2CCCCC2)c1C [Example 8, Cyclohexylmethyl-5-[2-(4-methoxy-phenyl)-thiazol-4-yl]-2-methyl-1H-pyrrole-3-carboxylic acid butylamide]",< 2000 nM
9,"CCCCNC(=O)c1cc(-c2csc(-c3ccc4c(c3)OCO4)n2)n(CC2CCCCC2)c1C [Example 340, 5-(2-Benzo[1,3]dioxol-5-yl-thiazol-4-yl)-1-cyclohexylmethyl-2-methyl-1H-pyrrole-3-carboxylic acid butylamide]",< 2000 nM
10,"CCCCNC(=O)c1cc(-c2csc(-c3ccc(OC)cc3)n2)n(Cc2ccccc2)c1C [Example 333, Benzyl-5-[2-(4-methoxy-phenyl)-thiazol-4-yl]-2-methyl-1H-pyrrole-3-carboxylic acid butylamide]",< 2000 nM

# Same assay, conditions: membranes of HEK cells transiently transfected with human CB1 receptor; radioligand [3H]-CP-55,940; read-out: IC50 (affinity for the CB1 receptor)
row,Compound,IC50
1,"CCCCNC(=O)c1cc(-c2csc(-c3ccc(OC)cc3)n2)n(Cc2ccccn2)c1C [Example 371, 5-[2-(4-Methoxy-phenyl)-thiazol-4-yl]-2-methyl-1-pyridin-2-ylmethyl-1H-pyrrole-3-carboxylic acid butylamide]",< 2000 nM

# Test system: not given
# Test: not given
# Settings: not given
row,Compound,melting point
1,"CCCCNC(=O)c1cc(-c2csc(-c3ccc([N+](=O)[O-])cc3)n2)n(CC2CCCCC2)c1C [Example 1, Cyclohexylmethyl-2-methyl-5-[2-(4-nitro-phenyl)-thiazol-4-yl]-1H-pyrrole-3-carboxylic acid butylamide]",184 to 187 °C

# Test system: not given
# Test: not given
# Settings: doses of 5, 10 and 20 mg daily; double blind placebo-controlled study; cited from earlier work
row,Compound,body weight compared to placebo
1,"Cc1c(C(=O)NN2CCCCC2)nn(-c2ccc(Cl)cc2Cl)c1-c1ccc(Cl)cc1 [SR 141716, Rimonabant]",significantly reduced body weight
